The results in this text go back to patent EP2776398B1, “SUBSTITUTED PYRAZOLYL-BASED UREA DERIVATIVES AS VANILLOID RECEPTOR LIGANDS” (Medifron DBT Inc., priority 2011, dated 2013).

T1 sequence (Q8NER1 whole entry): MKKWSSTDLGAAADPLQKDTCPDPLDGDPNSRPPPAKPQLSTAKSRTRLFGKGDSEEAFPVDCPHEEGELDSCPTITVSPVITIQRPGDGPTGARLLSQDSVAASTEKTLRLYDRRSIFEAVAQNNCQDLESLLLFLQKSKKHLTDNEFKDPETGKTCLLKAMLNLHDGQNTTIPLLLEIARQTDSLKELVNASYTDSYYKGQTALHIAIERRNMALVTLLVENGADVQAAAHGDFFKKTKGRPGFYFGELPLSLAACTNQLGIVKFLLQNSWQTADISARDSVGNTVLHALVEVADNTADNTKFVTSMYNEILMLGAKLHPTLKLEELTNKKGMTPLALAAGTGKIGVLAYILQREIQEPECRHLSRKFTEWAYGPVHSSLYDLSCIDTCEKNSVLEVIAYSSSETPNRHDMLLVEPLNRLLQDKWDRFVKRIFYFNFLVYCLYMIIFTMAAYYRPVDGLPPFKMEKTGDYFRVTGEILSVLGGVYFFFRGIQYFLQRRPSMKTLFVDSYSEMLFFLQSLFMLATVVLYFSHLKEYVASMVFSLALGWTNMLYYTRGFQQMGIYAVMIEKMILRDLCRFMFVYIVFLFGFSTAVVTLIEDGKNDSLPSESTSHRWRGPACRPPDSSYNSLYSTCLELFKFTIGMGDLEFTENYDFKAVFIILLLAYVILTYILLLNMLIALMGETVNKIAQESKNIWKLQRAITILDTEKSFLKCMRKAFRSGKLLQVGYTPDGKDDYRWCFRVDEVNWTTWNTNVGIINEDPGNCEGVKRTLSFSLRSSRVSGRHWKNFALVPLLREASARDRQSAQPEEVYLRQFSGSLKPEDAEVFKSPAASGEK

The first test addresses T1, vanilloid receptor 1 (VR1/TRPV1 receptor) (Homo sapiens, UniProt Q8NER1).
T1 construct: expressed in transfected cells; host or cells: CHO K1 cells (ECACC), stably transfected
The test is described as follows: Functional testing on vanilloid receptor 1: FLIPR Ca2+ influx assay against capsaicin (Cap) in transfected CHO K1 cells (pharmacological method II). For Ki: 100 nM capsaicin. Format: cell-based. Also noted: key to (f) Ki (human being) [nM] Cap: agonist classification: AG = agonist. The conditions noted are these: human VR1 in CHO K1 cells; AG printed instead of a Ki.
Description: […]
Consider `CC(C(=O)NCc1cc(C(C)(C)C)nn1-c1cccc(Cl)c1)c1ccc(CO)c(Cl)c1` (centres unmarked) [A51, N-[[5-tert-Butyl-2-(3-chlorophenyl)-2H-pyrazol-3-yl]-methyl]-2-[3-chloro-4-(hydroxymethyl)-phenyl]-propionamide], for which the “(f) Ki (human being) [nM] Cap: agonist classification” value (“(f) Ki (human being) [nM] Cap” below) is reported as “AG”.
Regarding `COc1cc(C(C)C(=O)NCc2cc(C(C)(C)C)nn2-c2cccc(Cl)c2)ccc1CO` (centres unmarked) [A49, N-[[5-tert-Butyl-2-(3-chlorophenyl)-2H-pyrazol-3-yl]-methyl]-2-[4-(hydroxymethyl)-3-methoxy-phenyl]-propionamide], the “(f) Ki (human being) [nM] Cap” value was “AG”.
On to `CC(C(=O)NCc1cc(C(C)(C)C)nn1-c1cccc(Cl)c1)c1ccc(CO)c(F)c1` (centres unmarked) [A32, N-[[5-tert-Butyl-2-(3-chlorophenyl)-2H-pyrazol-3-yl]-methyl]-2-[3-fluoro-4-(hydroxymethyl)-phenyl]-propionamide], for which the “(f) Ki (human being) [nM] Cap” value is reported as “AG”.
Take `CC(C(=O)NCc1cc(C(F)(F)F)nn1-c1cccc(C(F)(F)F)c1)c1ccc(CO)c(F)c1` (centres unmarked) [A48, 2-[3-Fluoro-4-(hydroxymethyl)-phenyl]-N-[[5-(trifluoromethyl)-2-[3-(trifluoromethyl)phenyl]-2H-pyrazol-3-yl]-methyl]-propionamide]: the “(f) Ki (human being) [nM] Cap” value is “AG”.
The same measure, in the same setting: under `CC(C)(C)c1cc(CNC(=O)Nc2ccc(CCO)c(F)c2)n(-c2cccc(Cl)c2)n1` [A140, 1-[[5-tert-Butyl-2-(3-chlorophenyl)-2H-pyrazol-3-yl]-methyl]-3-[3-fluoro-4-(2-hydroxy-ethyl)-phenyl]-urea] stands “AG”; under `CC(C)(C)c1cc(CNC(=O)Nc2cc(F)c(O)c(F)c2)n(-c2cccc(Cl)c2)n1` [A11, 1-[[5-tert-Butyl-2-(3-chlorophenyl)-2H-pyrazol-3-yl]-methyl]-3-(3,5-difluoro-4-hydroxy-phenyl)-urea], “AG”.

Staying with this test, now noted: read-out: (f) Ki (human being) [nM] Cap.
What is called Ki is the dissociation constant of the complex between target and ligand, obtained from inhibition or displacement. Regarding `COc1ccc(-n2nc(C(F)(F)F)cc2CNC(=O)Nc2ccc(CO)c(F)c2)cc1C` [A87, 1-[3-Fluoro-4-(hydroxymethyl)-phenyl]-3-[[2-(4-methoxy-3-methyl-phenyl)-5-(trifluoromethyl)-2H-pyrazol-3-yl]-methyl]-urea], the Ki worked out at 63 nM.
With `COc1c(F)cc(NC(=O)NCc2cc(C(F)(F)F)nn2-c2cccc(Cl)c2)cc1F` [A8, 1-[[2-(3-Chlorophenyl)-5-(trifluoromethyl)-2H-pyrazol-3-yl]-methyl]-3-(3,5-difluoro-4-methoxy-phenyl)-urea], the Ki was 55 nM.
On the same count and under the same terms, under `O=C(NCc1cc(C(F)(F)F)nn1-c1cccc(C(F)F)c1)Nc1ccc(CO)c(F)c1` [A83, 1-[[2-[3-(Difluoro-methyl)-phenyl]-5-(trifluoromethyl)-2H-pyrazol-3-yl]-methyl]-3-[3-fluoro-4-(hydroxymethyl)-phenyl]-urea] stands 12 nM; under `O=C(NCc1cc(C(F)(F)F)nn1-c1cccc(Cl)c1Cl)Nc1ccc(CO)c(F)c1` [A89, 1-[[2-(2,3-Dichloro-phenyl)-5-(trifluoromethyl)-2H-pyrazol-3-yl]-methyl]-3-[3-fluoro-4-(hydroxymethyl)-phenyl]-urea], 45 nM; under `COc1c(F)cc(C(C)C(=O)NCc2cc(C(F)(F)F)nn2-c2ccc(F)c(Cl)c2)cc1F` (centres unmarked) [A9, N-[[2-(3-Chloro-4-fluoro-phenyl)-5-(trifluoromethyl)-2H-pyrazol-3-yl]-methyl]-2-(3,5-difluoro-4-methoxy-phenyl)-propionamide], 7 nM.
For `CC(O)c1ccc(C(C)C(=O)NCc2cc(C(F)(F)F)nn2-c2cccc(Cl)c2)cc1F` (centres unmarked) [A99, N-[[2-(3-Chlorophenyl)-5-(trifluoromethyl)-2H-pyrazol-3-yl]-methyl]-2-[3-fluoro-4-(1-hydroxy-ethyl)-phenyl]-propionamide], the Ki was 6 nM.
Consider `CC(C(=O)NCc1cc(C(C)(C)C)nn1-c1cccc(Cl)c1)c1ccc(COCCO)c(F)c1` (centres unmarked) [A117, N-[[5-tert-Butyl-2-(3-chlorophenyl)-2H-pyrazol-3-yl]-methyl]-2-[3-fluoro-4-(2-hydroxy-ethoxy-methyl)-phenyl]-propionamide], for which the Ki amounted to 9 nM.
`Cc1cc(-n2nc(C(F)(F)F)cc2CNC(=O)Nc2ccc(CO)c(F)c2)ccc1F` [A80, 1-[3-Fluoro-4-(hydroxymethyl)-phenyl]-3-[[2-(4-fluoro-3-methyl-phenyl)-5-(trifluoromethyl)-2H-pyrazol-3-yl]-methyl]-urea]: the Ki is 7 nM.
